Source: US11555036B2, “FGFR4 inhibitor, preparation method therefor and pharmaceutical use thereof” (Abbisko Therapeutics Co., Ltd., priority 2016, dated 2023)

Experiments:
[1] = system: Huh7 hepatocellular carcinoma cells; test: FGFR4 cell proliferation experiment, Cell Titer Glo (CTG); assay type: cell-based; details: Homo sapiens, Huh-7, 72 h, HuH-7 cells, 3 days; for IC50: concentration leading to absolute half growth inhibition; for EC50: concentration leading to half maximal growth inhibition
Procedure: II. FGFR4 Cell Proliferation Experiment
Cell Titer Glo (CTG) experiment was used in the present invention to evaluate the functional effects of the compounds on cell proliferation. […] Compound-mediated inhibition of cell proliferation/survival was assessed by quantification of cellular ATP levels using CTG reagent (Promega, #G7573). The specific experimental procedure was as follows:
2. 10 μL of medium containing a compound concentration of 10 fold of its final test concentration was added;
3. The dose effect was evaluated by a 5-fold serial dilution of the test compound, starting from 10 μM.
4. After cells incubation for 3 days at 37° C. under 5% CO2, the effect of the inhibitor on cell proliferation was quantified after adding 50 μL of CTG and testing with luminescence.

FGFR4 = FGFR4 (Homo sapiens, UniProt P22455); test: FGFR4 Caliper Assay (in vitro biochemical kinase analysis of FGFR4); details: read-out: Enzymatic activity FGFR4 IC50
Chain of FGFR4 (P22455 22-802): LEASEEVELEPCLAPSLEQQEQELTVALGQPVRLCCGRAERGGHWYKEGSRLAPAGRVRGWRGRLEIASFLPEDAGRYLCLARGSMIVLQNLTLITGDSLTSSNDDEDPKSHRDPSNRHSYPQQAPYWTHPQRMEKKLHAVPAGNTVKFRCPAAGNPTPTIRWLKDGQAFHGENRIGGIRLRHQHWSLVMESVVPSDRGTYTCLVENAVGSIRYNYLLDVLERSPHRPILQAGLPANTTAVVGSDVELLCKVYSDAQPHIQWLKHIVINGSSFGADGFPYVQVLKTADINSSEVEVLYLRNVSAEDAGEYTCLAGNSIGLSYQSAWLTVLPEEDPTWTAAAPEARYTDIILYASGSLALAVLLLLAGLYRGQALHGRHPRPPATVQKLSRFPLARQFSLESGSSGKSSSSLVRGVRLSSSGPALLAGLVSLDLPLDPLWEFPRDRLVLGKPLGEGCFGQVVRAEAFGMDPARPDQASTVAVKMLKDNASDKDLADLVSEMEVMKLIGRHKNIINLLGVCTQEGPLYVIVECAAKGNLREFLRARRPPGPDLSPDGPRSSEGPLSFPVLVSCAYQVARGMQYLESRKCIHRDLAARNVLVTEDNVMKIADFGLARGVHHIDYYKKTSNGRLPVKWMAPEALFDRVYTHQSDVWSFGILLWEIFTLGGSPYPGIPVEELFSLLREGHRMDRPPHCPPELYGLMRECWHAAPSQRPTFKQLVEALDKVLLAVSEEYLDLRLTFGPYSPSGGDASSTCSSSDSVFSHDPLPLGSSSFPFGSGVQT
Procedure: I. In Vitro Biochemical Kinase Analysis of FGFR4
FGFR4 Caliper Assay was used in the present invention to determine the inhibitory activities of the compounds against FGFR4. The detailed experimental procedure was as follows.
2. A reaction system is a mixture solution of 50 mM HEPES, pH 7.5, 1 mM DTT, 0.02% Tween 20, 0.02% BSA, 0.6% DMSO, 10 mM beta glycerol phosphate and 10 μM sodium orthovanadate and 16 mM MgCl2.
3. The reaction system was incubated at 30° C. for 40 minutes.
4. The reaction was terminated by adding a stop solution (100 mM HEPES, pH 7.5, 5% DMSO, 0.1% Caliper coating reagent, 10 mM EDTA and 0.015% Brij35).
5. The culture plate with the terminated kinase reaction was transferred to the Caliper LC 3000 workstation to read the data, the phosphorylated and unphosphorylated peptides were separated by using the Caliper microfluid migration shift technique, and the analyte was transferred by allowing a constant buffer flow through the chip, the migration of the substrate peptide was monitored by the labeled fluorescent signal, and the kinase activity was calculated by using the amount of the phosphate-based peptide formed.
6. Finally, IC50 values were determined by non-linear regression analysis of percent inhibition at different compound concentrations.

SMILES	IC50 [1] [nM]	EC50 [1] [nM]	IC50 (FGFR4) [nM]
C=CC(=O)N[C@H]1COC[C@H]1Nc1ncc2cc(-c3c(Cl)c(OC)cc(OC)c3Cl)nc(NCc3cnn(C)c3)c2n1 [Example 459, N-((3R,4S)-4-((6-(2,6-dichloro-3,5-di-methoxyphenyl)-8-(((1-methyl-1H-pyrazol-4-yl)methyl)amino)pyrido[3,4-d]pyrimidin-2-yl)amino)tetrahydro-furan-3-yl)acrylamide]	58	23.8	17.3
C=CC(=O)N[C@H]1COC[C@H]1Nc1ncc2cc(-c3c(Cl)c(OC)cc(OC)c3Cl)nc(NCC(C)(C)C)c2n1 [Example 462, N-((3R,4S)-4-((6-(2,6-dichloro-3,5-di-methoxyphenyl)-8-(neopentylamino)pyrido[3,4-d]pyrimidin-2-yl)amino)tetrahydrofuran-3-yl)acrylamide]	38.3	24.6	14.5
C=CC(=O)N[C@H]1COC[C@H]1Nc1ncc2cc(-c3cc(OC)cc(OC)c3Cl)nc(NCC3CC3)c2n1 [Example 475, N-((3R,4S)-4-((6-(2-chloro-3,5-dimeth-oxyphenyl)-8-((cyclopropylmethyl)a-mino)pyrido[3,4-d]pyrimidin-2-yl)a-mino)tetrahydrofuran-3-yl)acrylamide]	678	132	62
C=CC(=O)N[C@H]1COC[C@H]1Nc1ncc2cc(-c3c(Cl)c(OC)cc(OC)c3Cl)nc(OCC3CC3)c2n1 [Example 498, N-((3R,4S)-4-((8-(cyclopropylmethoxy)-6-(2,6-dichloro-3,5-dimethoxyphen-nyl)pyrido[3,4-d]pyrimidin-2-yl)amino)tetrahydrofuran-3-yl)acrylamide]	> 10000	2390	8800
C=CC(=O)N[C@H]1CCOC[C@H]1Nc1ncc2cc(-c3c(Cl)c(OC)cc(OC)c3Cl)nc(NCC3CC3)c2n1 [Example 501, N-((3S,4S)-3-((8-((cyclopropylmeth-yl)amino)-6-(2,6-dichloro-3,5-dimeth-oxyphenyl)pyrido[3,4-d]pyrimidin-2-yl)amino)tetrahydro-2H-pyran-4-yl)acrylamide]	49.9	17.8	15.7
C=CC(=O)N[C@H]1COC[C@H]1Nc1ncc2cc(-c3c(Cl)c(OC)cc(OC)c3Cl)nc(C)c2n1 [Example 606, N-((3R,4S)-4-((6-(2,6-dichloro-3,5-di-methoxyphenyl)-8-methylpyrido[3,4-d]pyrimidin-2-yl)amino)tetrahydro-furan-3-yl)acrylamide]	41.1	25.7	23.4
C=CC(=O)N[C@H]1COC[C@H]1Nc1ncc2cc(-c3c(Cl)c(OC)cc(OC)c3Cl)nc(-c3cnn(C)c3)c2n1 [Example 629, N-((3R,4S)-4-((6-(2,6-dichloro-3,5-di-methoxyphenyl)-8-(1-methyl-1H-pyrazol-4-yl)pyrido[3,4-d]pyrimidin-2-yl)amino)tetrahydrofuran-3-yl)acryl-amide]	4	2.6	2.9
C=CC(=O)N[C@H]1COC[C@H]1Nc1ncc2cc(-c3c(F)c(OC)cc(OC)c3F)nc(-c3cnn(C)c3)c2n1 [Example 637, N-((3R,4S)-4-((6-(2,6-difluoro-3,5-dimethoxyphenyl)-8-(1-methyl-1H-py-razol-4-yl)pyrido[3,4-d]pyrimidin-2-yl)amino)tetrahydrofuran-3-yl)acryl-amide]	17.3	10.1	4.2
C=CC(=O)N[C@H]1COC[C@H]1Nc1ncc2cc(-c3c(Cl)c(OC)cc(OC)c3Cl)nc(NC3CC3)c2n1 [Example 655, N-((3R,4S)-4-((8-(cyclopropylamino)-6-(2,6-dichloro-3,5-dimethoxyphen-yl)pyrido[3,4-d]pyrimidin-2-yl)amino)tetrahydrofuran-3-yl)acrylamide]	68.4	28	8
C=CC(=O)N[C@H]1COC[C@H]1Nc1ncc2cc(-c3c(F)c(OC)cc(OC)c3F)nc(N3CC(C)(OC)C3)c2n1 [Example 666, N-((3R,4S)-4-((6-(2,6-difluoro-3,5-dimethoxyphenyl)-8-(3-methoxy-3-methylazetidin-1-yl)pyrido[3,4-d]pyri-midin-2-yl)amino)tetrahydrofuran-3-yl)acrylamide]	4.6	3.2	4.5
C=CC(=O)N[C@H]1COC[C@H]1Nc1ncc2cc(-c3c(Cl)c(OC)cc(OC)c3Cl)nc(N3CC4(COC4)C3)c2n1 [Example 668, N-((3R,4S)-4-((6-(2,6-dichloro-3,5-dimethoxyphenyl)-8-(2-oxa-6-aza-spiro[3.3]heptan-6-yl)pyrido[3,4-d]py-rimidin-2-yl)amino)tetrahydrofuran-3-yl)acrylamide]	22.6	16	14.7
C=CC(=O)N[C@H]1COC[C@H]1Nc1ncc2cc(-c3c(Cl)c(OC)cc(OC)c3Cl)nc(N3CC4(CCOCC4)C3)c2n1 [Example 675, N-((3R,4S)-4-((6-(2,6-dichloro-3,5-dimethoxyphenyl)-8-(7-oxa-2-azaspiro[3.5]nonan-2-yl)pyrido[3,4-d]pyrimidin-2-yl)amino)tetrahydrofuran-3-yl)acrylamide]	8.7	6.2	11
C=CC(=O)N[C@H]1COC[C@H]1Nc1ncc2cc(-c3c(F)c(OC)cc(OC)c3F)nc(N3CCC(OC)C3)c2n1 (stereo partly drawn) [Example 678, N-((3R,4S)-4-((6-(2,6-difluoro-3,5-di-methoxyphenyl)-8-(3-methoxypyrro-lidin-1-yl)pyrido[3,4-d]pyrimidin-2-yl)amino)tetrahydrofuran-3-yl)acryl-amide]	16.5	13.3	6.5

Continued, values first:

IC50 [1] [nM]	EC50 [1] [nM]	IC50 (FGFR4) [nM]	SMILES
13.3	9.6	6.5	C=CC(=O)N[C@H]1COC[C@H]1Nc1ncc2cc(-c3c(Cl)c(OC)cc(OC)c3Cl)nc(N3CCC3)c2n1 [Example 657, N-((3R,4S)-4-((8-(azetidin-1-yl)-6-(2,6-dichloro-3,5-dimethoxyphenyl)py-rido[3,4-d]pyrimidin-2-yl)amino)tetra-hydrofuran-3-yl)acrylamide]
15.1	11.4	4.8	C=CC(=O)N[C@H]1COC[C@H]1Nc1ncc2cc(-c3c(Cl)c(OC)cc(OC)c3Cl)nc(N3CC(OC)C3)c2n1 [Example 658, N-((3R,4S)-4-((6-(2,6-dichloro-3,5-dimethoxyphenyl)-8-(3-methoxyazeti-din-1-yl)pyrido[3,4-d]pyrimidin-2-yl)amino)tetrahydrofuran-3-yl)acryl-amide]
24.3	18	6.6	C=CC(=O)N[C@H]1COC[C@H]1Nc1ncc2cc(-c3c(F)c(OC)cc(OC)c3F)nc(N3CC(OC)C3)c2n1 [Example 659, N-((3R,4S)-4-((6-(2,6-difluoro-3,5-dimethoxyphenyl)-8-(3-methoxyazeti-din-1-yl)pyrido[3,4-d]pyrimidin-2-yl)a-mino)tetrahydrofuran-3-yl)acryl-amide]
3.5	2.3	4.5	C=CC(=O)N[C@H]1COC[C@H]1Nc1ncc2cc(-c3c(Cl)c(OC)cc(OC)c3Cl)nc(N3CC(F)(F)C3)c2n1 [Example 663, N-((3R,4S)-4-((6-(2,6-dichloro-3,5-dimethoxyphenyl)-8-(3,3-difluoroaze-tidin-1-yl)pyrido[3,4-d]pyrimidin-2-yl)amino)tetrahydrofuran-3-yl)acryl-amide]
4.9	3.7	4.9	C=CC(=O)N[C@H]1COC[C@H]1Nc1ncc2cc(-c3c(Cl)c(OC)cc(OC)c3Cl)nc(N3CC(C)(O)C3)c2n1 [Example 664, N-((3R,4S)-4-((6-(2,6-dichloro-3,5-dimethoxyphenyl)-8-(3-hydroxy-3-meth-ylazetidin-1-yl)pyrido[3,4-d]pyrimi-din-2-yl)amino)tetrahydrofuran-3-yl)acrylamide]
11.8	9.9	5.7	C=CC(=O)N[C@H]1COC[C@H]1Nc1ncc2cc(-c3c(Cl)c(OC)cc(OC)c3Cl)nc(N3CC(C)(OC)C3)c2n1 [Example 665, N-((3R,4S)-4-((6-(2,6-dichloro-3,5-di-methoxyphenyl)-8-(3-methoxy-3-methylazetidin-1-yl)pyrido[3,4-d]py-rimidin-2-yl)amino)tetrahydrofuran-3-yl)acrylamide]
5.3	3.7	7.4	C=CC(=O)N[C@H]1COC[C@H]1Nc1ncc2cc(-c3c(Cl)c(OC)cc(OC)c3Cl)nc(N3CCC(OC)C3)c2n1 (stereo partly drawn) [Example 677, N-((3R,4S)-4-((6-(2,6-dichloro-3,5-dimethoxyphenyl)-8-(3-methoxypyrro-lidin-1-yl)pyrido[3,4-d]pyrimidin-2-yl)amino)tetrahydrofuran-3-yl)acryl-amide]
